The values that follow come from patent publication US20230373934A1, “ANDROGEN RECEPTOR MODULATORS AND METHODS FOR THEIR USE” (ESSA Pharma, Inc., priority 2022, published 2023).

The structures appear in SMILES notation.

The term IC50 denotes the concentration needed to halve the response being measured.

The nature of series [1]: Microsomal stability assay, liver microsome half-life (dog). The series is classed as in vitro ADME. The settings on record: pH 7.4; dog liver microsomes 0.5 mg/mL + NADPH, 1 μM compound, 37° C; read-out: Liver microsome + NADPH T½ (min) Dog. The source says: (§1) Microsomal Stability Assay: Microsomal stability assay is a widely used in vitro model to characterize the metabolic conversion by phase I enzymes, such as cytochrome P450 (CYP) enzymes. Since metabolism is known to be highly variable in different species, microsomal stability assay is commonly run in multiple species. Metabolic stability of testing compound can be evaluated using human, rat, mouse, or other animal liver or intestine microsomes to predict intrinsic clearance.
(§2) The assay was carried out in 96-well microtiter plates at 37° C. Reaction mixtures (25 μL) contained a final concentration of 1 μM test compound, 0.5 mg/mL liver microsomes protein, and 1 mM NADPH and/or 1 mM UDPGA (with alamethicin) in 100 mM potassium phosphate, pH 7.4 buffer with 3 mM MgCl2. The incubation was done with N=1, but duplicate incubation at each time point can be prepared if necessary. At each of the time points (for example, 0, 15, 30, and 60 minutes), 150 μL of quench solution (100% acetonitrile with 0.1% formic acid) with internal standard was transferred to each well. Besides the zero minute controls, mixtures containing the same components except the NADPH can also be prepared as the negative control. Verapamil was included as a positive control to verify assay performance. Plates were sealed, vortexed, and centrifuged at 4° C. for 15 minutes at 4000 rpm. The supernatant is transferred to fresh plates for LC/MS/MS analysis.
(§3) Summarized conditions: [Compound]=1 μM, [LM]=0.5 mg/mL, [NADPH]=1 mM and/or [UDPGA]=1 mM, Buffer=100 mM Potassium Phosphate, pH 7.4 with 3 mM MgCl2, Time=0, 15, 30, and 60 min, and Temperature=37° C.
(§4) All samples were analyzed on LC/MS/MS using an AB Sciex API 4000 instrument, coupled to a Shimadzu LC-20AD LC Pump system. Analytical samples were separated using a Waters Atlantis T3 dC18 reverse phase HPLC column (20 mm×2.1 mm) at a flow rate of 0.5 mL/min. The mobile phase consisted of 0.1% formic acid in water (solvent A) and 0.1% formic acid in 100% acetonitrile (solvent B).
(§5) The extent of metabolism is calculated as the disappearance of the test compound, compared to the 0-min time incubation. Initial rates are calculated for the compound concentration and used to determine half-life (t1/2).

The nature of series [2]: Microsomal stability assay, liver microsome half-life (monkey). The series is classed as in vitro ADME. The settings on record: pH 7.4; monkey liver microsomes 0.5 mg/mL + NADPH, 1 μM compound, 37° C; read-out: Liver microsome + NADPH T½ (min) Monkey.
Source text: as §1, §2, §3, §4, §5

The nature of series [3]: Microsomal stability assay, liver microsome half-life (rat). In kind it is in vitro ADME. To be noted: pH 7.4; rat liver microsomes 0.5 mg/mL + NADPH, 1 μM compound, 37° C; read-out: Liver microsome + NADPH T½ (min) Rat.
Source text: as §1, §2, §3, §4, §5
(In general: Liver microsomes are a subcellular fraction often used to study metabolism.)

Series [4] can be described thus: Microsomal stability assay, liver microsome half-life (human). The series is classed as in vitro ADME. To be noted: pH 7.4; human liver microsomes 0.5 mg/mL + NADPH, 1 μM compound, 37° C; read-out: Liver microsome + NADPH T½ (min) Human.
Source text: as §1, §2, §3, §4, §5

Series [5] in a line: Microsomal stability assay, liver microsome half-life (mouse). In kind it is in vitro ADME. The settings on record: pH 7.4; mouse liver microsomes 0.5 mg/mL + NADPH, 1 μM compound, 37° C; read-out: Liver microsome + NADPH T½ (min) Mouse.
Source text: as §1, §2, §3, §4, §5

The target in series [6] is T1, androgen receptor (AR) (Homo sapiens, UniProt P10275).
T1 sequence (P10275 1-920 T878A): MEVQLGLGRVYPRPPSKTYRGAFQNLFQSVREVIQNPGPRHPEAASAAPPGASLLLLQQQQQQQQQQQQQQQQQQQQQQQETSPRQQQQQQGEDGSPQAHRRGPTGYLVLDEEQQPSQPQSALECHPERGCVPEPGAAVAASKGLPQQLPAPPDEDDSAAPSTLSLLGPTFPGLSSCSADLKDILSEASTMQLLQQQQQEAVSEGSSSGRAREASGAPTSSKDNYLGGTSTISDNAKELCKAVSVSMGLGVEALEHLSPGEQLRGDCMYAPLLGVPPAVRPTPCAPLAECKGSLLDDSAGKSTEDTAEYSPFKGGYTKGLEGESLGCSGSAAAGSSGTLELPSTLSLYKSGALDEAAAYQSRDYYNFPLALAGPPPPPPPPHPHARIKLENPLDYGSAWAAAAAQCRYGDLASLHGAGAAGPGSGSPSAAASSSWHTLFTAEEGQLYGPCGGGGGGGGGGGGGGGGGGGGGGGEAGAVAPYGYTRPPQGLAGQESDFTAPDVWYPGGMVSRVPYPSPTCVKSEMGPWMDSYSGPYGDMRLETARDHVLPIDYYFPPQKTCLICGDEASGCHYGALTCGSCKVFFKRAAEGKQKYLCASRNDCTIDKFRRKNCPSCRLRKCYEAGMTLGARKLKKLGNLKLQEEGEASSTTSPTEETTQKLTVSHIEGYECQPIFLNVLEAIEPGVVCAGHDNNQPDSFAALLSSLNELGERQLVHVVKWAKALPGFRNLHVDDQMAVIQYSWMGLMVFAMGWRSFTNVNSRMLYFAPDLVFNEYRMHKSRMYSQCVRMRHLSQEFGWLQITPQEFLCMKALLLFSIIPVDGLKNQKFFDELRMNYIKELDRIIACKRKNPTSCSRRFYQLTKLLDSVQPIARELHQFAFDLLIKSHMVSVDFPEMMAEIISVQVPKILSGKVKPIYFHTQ
The series is described as follows: Androgen-induced PSA-luciferase assay, Luciferase Assay B (cells stably expressing ARR2PB or PSA-firefly luciferase reporter, 384-well). In kind it is cell-based. To be noted: Luciferase Assay B (Compounds A186-A219 and A221-A245); stable luciferase reporter cells, 1 h pretreatment, R1881 24 h, serum-free; read-out: PSA-Luc IC50 Range. The protocol: Luciferase Assay B: Cells stably expressing probasin promoter (ARR2PB) or human prostate-specific antigen (PSA)-firefly luciferase reporter were plated in poly-D-lysine-coated 384-well plates. 48 h after plating, cells were pretreated with vehicle or compounds for 1 h before adding R1881 under serum-free and phenol red-free conditions and then further incubated for 24 h. R1881 was added only for LNCaP cells. Firefly luciferase activities were determined by EnVision plate reader (Perkinemer) using the Steady-Glo Luciferase Reporter Assay System (Promega). Values were normalized to protein content. GraphPad Prism graphing software was used to calculate IC50 values. Luciferase Assay B was run for Compounds A186-A219 and A221-A245 in Table 2.
Statistical analyses were performed using GraphPad Prism (Version 6.01 for Windows; La Jolla, CA, USA). Comparisons between treatment and control groups were compared using Two-Way ANOVA with post-hoc Dunnett's and Tukey's tests. Differences were considered statistically significant at P values less than 0.05.
(In a reporter assay the amount or activity of a reporter protein is the signal.)

Series [7] concerns the target T2, androgen receptor (AR) (Homo sapiens, UniProt P10275, T878A).
T2 construct: endogenous in cells; host or cells: LNCaP
T2 sequence (P10275 1-920 T878A): T1 sequence (P10275 1-920 T878A)
Put plainly: Androgen-induced PSA-luciferase assay, Luciferase Assay A (LNCaP transiently transfected with PSA (6.1 kb)-luciferase reporter). The series is classed as cell-based. To be noted: LNCaP cells, 1 h pretreatment, R1881 (1 nM) 24 h, read-out: PSA-Luc IC50 Range. The gist of the method: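 LNCaP cells transfected 24 h with PSA (6.1 kb)-luciferase reporter, pretreated 1 h with compound, then stimulated 24 h with R1881 (1 nM). Firefly luminescence in lysates normalized to protein content; IC50 from activity relative to R1881-induced vehicle control.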

Consider `CS(=O)(=O)Nc1nc2ccc(-c3ccc(Oc4cc(Cl)c(OC5CC5)c(C#N)c4)cc3)cc2cc1F` [Compound A191], for which the half-life at 1 μM in series [1], in series [2], in series [3], in series [4] and in series [5] was above 120 min throughout. Also, in series [6], the IC50 lay within 500 to 2000 nM.
As to `CS(=O)(=O)Nc1cnc2cc(-c3ccc(Oc4cc(C#N)c(OC5CC5)c(C(F)(F)F)c4)cc3)ccc2n1` [Compound A190], the half-life at 1 μM in series [1], in series [2], in series [3], in series [4] and in series [5] was above 120 min throughout. Moreover, the IC50 in series [6] is 500 to 2000 nM.
For `CS(=O)(=O)Nc1cnc2cc(-c3ccc(N(CC(F)(F)F)c4cc(Cl)c(OC5CC5)c(C#N)c4)cc3)ccc2n1` [Compound A186, N-(6-(4-((3-chloro-5-cyano-4-cyclopropoxyphenyl) (2,2,2-trifluoroethyl)amino)phenyl)quinoxalin-2-yl)methanesulfonamide], the half-life at 1 μM in series [1], in series [2], in series [3], in series [4] and in series [5] was above 120 min in each case. Further, in series [6], the half-inhibitory concentration (IC50) was below 500 nM.
For the compound `CC(C)(c1ccc(OC[C@H]2C[C@H](NS(C)(=O)=O)C2)cc1)c1cc(Cl)c(OCCCl)c(C#N)c1` [Compound A15, N-((1r,3r)-3-((4-(2-(3-chloro-4-(2-chloroethoxy)-5-cyanophenyl)propan-2-yl)phenoxy)methyl)cyclobutyl)methanesulfonamide], the half-life at 1 μM in series [1], in series [2], in series [3], in series [4] and in series [5] was above 120 min each time. Further, the half-maximal inhibitory concentration (IC50) in series [7] is 500 to 2000 nM.
Take `CC(C)(c1ccc(OC2CC3(C2)CN(S(C)(=O)=O)C3)cc1)c1cc(Cl)c(OCCCl)c(C#N)c1` [Compound A72]: the half-life at 1 μM in series [1], in series [2], in series [3], in series [4] and in series [5] was above 120 min in each case. In addition, the IC50 in series [7] lay within 500 to 2000 nM.
For the compound `COc1c(Cl)cc(N(c2ccc(-c3ccc4nc(NS(C)(=O)=O)cnc4c3)cc2)C2CC2)cc1C#N` [Compound A163], the half-life at 1 μM in series [1], in series [2], in series [3], in series [4] and in series [5] was above 120 min throughout. Moreover, in series [7], the concentration for half-maximal inhibition (IC50) was below 500 nM.
With `CS(=O)(=O)Nc1cnc2cc(-c3ccc(N(CC(F)(F)F)c4cc(Cl)c(OCCCl)c(C#N)c4)cc3)ccc2n1` [Compound A22, N-(6-(4-((3-chloro-4-(2-chloroethoxy)-5-cyanophenyl)(2,2,2-trifluoroethyl)amino)phenyl)quinoxalin-2-yl)methanesulfonamide], the half-life at 1 μM in series [1], in series [2], in series [3], in series [4] and in series [5] was above 120 min in each case. In series [7], the IC50 is 500 to 2000 nM.
`CC(C)(c1ccc(-c2cnc(N3CC(NS(C)(=O)=O)C3)nc2)cc1)c1cc(Cl)c(OCCCl)c(C#N)c1` [Compound A36, N-(1-(5-(4-(2-(3-chloro-4-(2-chloroethoxy)-5-cyanophenyl)propan-2-yl)phenyl)pyrimidin-2-yl)azetidin-3-yl)methanesulfonamide]: the half-life at 1 μM in series [1] was above 120 min; in series [2], 49 min; in series [3], 66 min; in series [4] it was above 120 min; in series [5], above 120 min. For the same compound, in series [7], the IC50 is below 500 nM.
Take `CC(C)(c1ccc(-c2ccc(N3CC(NS(C)(=O)=O)C3)nc2)cc1)c1cc(Cl)c(OCCCl)c(C#N)c1` [Compound A11]: the half-life at 1 μM is above 120 min in series [1]; 28 min in series [2]; 103 min in series [3]; 58 min in series [4]; above 120 min in series [5]. For the same compound, the half-maximal inhibitory concentration (IC50) in series [7] was 500 to 2000 nM.
On to `CS(=O)(=O)Nc1nc2ccc(-c3ccc(Oc4cc(Cl)c(OCCCl)c(C#N)c4)cc3)cc2cc1F` [Compound A157], for which the half-life at 1 μM in series [1], in series [2], in series [3], in series [4] and in series [5] was above 120 min each time. In series [7], the IC50 was 500 to 2000 nM.
For the compound `CC(C)(C)N(c1ccc(-c2ccc3nc(NS(C)(=O)=O)cnc3c2)cc1)c1cc(Cl)c(OCCCl)c(C#N)c1` [Compound A28], the half-life at 1 μM in series [1] is above 120 min; in series [2], above 120 min; in series [3], above 120 min; in series [4], 78 min; in series [5], above 120 min. The IC50 in series [7] was 500 to 2000 nM.
